The source of these data is patent US10189777B2, “Benzenesulfonamido and related compounds for use as agonists of RORγ and the treatment of disease” (Lycera Corporation, priority 2014, dated 2019).

For this assay, the target named is T1, HIS-tagged RORγ-LBD protein (Homo sapiens, UniProt P51449).
T1 construct: made in house; host or cells: SF9 cells, baculovirus expression system; the lysate was used
T1 sequence (P51449 269-508 limits assumed): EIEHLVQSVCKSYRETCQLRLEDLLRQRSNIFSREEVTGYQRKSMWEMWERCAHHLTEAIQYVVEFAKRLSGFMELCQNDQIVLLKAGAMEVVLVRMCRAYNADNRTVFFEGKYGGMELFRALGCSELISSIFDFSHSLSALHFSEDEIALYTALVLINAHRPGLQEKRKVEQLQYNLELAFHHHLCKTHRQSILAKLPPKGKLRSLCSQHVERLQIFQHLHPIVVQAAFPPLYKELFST
The assay can be described thus: RORγ-Ligand Binding Domain (LBD) TR-FRET Assay. Type of assay: biochemical. The settings on record: for EC50: with 2 μM RORγ antagonist ursolic acid, biotinylated SRC1 LXXLL peptide, ratio 665 nm/615 nm; for TR-FRET Assay Max Response: upper plateau of 4-parameter fit, signal in the absence of ursolic acid or test compound set as 100. The protocol: Exemplary compounds from the above Examples were tested for ability to increase RORγ activity using (i) a RORγ-Ligand Binding Domain (LBD) TR-FRET Assay, and (ii) a Gal4-RORγ Luciferase Reporter Assay in HEK-293T Cells. Assay procedures and results are described below.
Part I—Procedures for RORγ-Ligand Binding Domain TR-FRET Assay
HIS-tagged RORγ-LBD protein was expressed in SF9 cells using a baculovirus expression system. The lysate was diluted in assay buffer (50 mM Tris pH 7.0, 50 mM KCl, 1 mM EDTA, 0.1 mM DTT, 0.01% BSA) to obtain RORγ-LBD final concentration of −3 nM in a 384-well assay plate (need to titrate for each batch of protein).
A stock of biotinylated-LXXLL peptide from coactivator SRC1 (Biotin-[…]) was prepared in assay buffer and added to each well (200 nM final concentration). A solution of Europium tagged anti-HIS antibody (0.6 nM final concentration) and APC-conjugated streptavidin (30 nM final concentration) were also added to each well. RORγ antagonist ursolic acid was also included at a final concentration of 2 μM. Compounds were diluted in DMSO and further diluted in assay buffer with a final DMSO concentration at 1%.
The final assay mixture was incubated overnight at 4° C. or 2 hours at room temperature, and the fluorescence signal was measured on an Envision plate reader: (Excitation filter=340 nm; APC emission=665 nm; Europium emission=615 nm; dichroic mirror=D400/D630; delay time=100 μs, integration time=200 μs). 50% Effective concentration (EC50) values for test compounds were calculated from the quotient of the fluorescence signal at 665 nm divided by the fluorescence signal at 615 nm. The quotient of the fluorescence signals in the absence of ursolic acid or test compound is set as 100. Max Response is defined as the upper plateau in the signal as determined by line-fit using a 4-parameter logistic model in PRISM (GraphPad).
(In general: In TR-FRET formats the signal depends on donor and acceptor labels being close together.)

As to `CCN(c1cccc(OC(C)c2c(F)cccc2Cl)c1)S(=O)(=O)c1cccc(C(F)(F)F)c1` (stereo not shown), the EC50 (in general, the concentration at which the effect is half-maximal) is more than 10 µM. For `CCN(c1cccc(C(C)Oc2c(F)cccc2Cl)c1)S(=O)(=O)c1cccc(C(F)(F)F)c1` (stereo not shown), the “TR-FRET Assay Max Response” value is “** (The symbol “**” indicates a value in the range of greater than 90 to 150)” and the EC50 was less than 0.5 µM. Consider `CCN(c1cccc(OCc2c(F)cccc2Cl)c1)S(=O)(=O)c1cccc(C(F)(F)F)c1`, for which the “TR-FRET Assay Max Response” value is “**** (The symbol “****” indicates a value greater than 200)” and the EC50 is less than 0.5 µM. As to `CCN(c1cccc(OCc2cccc(Cl)c2Cl)c1)S(=O)(=O)c1cccc(C(F)(F)F)c1`, the concentration for a half-maximal effect (EC50) was more than 10 µM.

For `CCN(c1cccc(OCc2ccccc2F)c1)S(=O)(=O)c1cccc(C(F)(F)F)c1`, the “TR-FRET Assay Max Response” value is “*** (The symbol “***” indicates a value in the range of greater than 150 to 200)” and the EC50 is less than 0.5 µM.

As for `CCN(c1cccc(OCc2ccc(Cl)cc2Cl)c1)S(=O)(=O)c1cccc(C(F)(F)F)c1`, the “TR-FRET Assay Max Response” value is “** (The symbol “**” indicates a value in the range of greater than 90 to 150)” and the EC50 was more than 10 µM. Taken in the same sequence, the figures for `CCN(c1cccc(COc2c(F)cccc2Cl)c1)S(=O)(=O)c1cccc(C(F)(F)F)c1` were “** (The symbol “**” indicates a value in the range of greater than 90 to 150)” and less than 0.5 µM. On to `CCOc1nn(CC)cc1S(=O)(=O)N(CC)c1cccc(OCc2ccccc2)c1`, for which the concentration giving a half-maximal response (EC50) was more than 10 µM. As to `CCC(c1cccc(OCc2ccccc2)c1)S(=O)(=O)c1ccc(Cl)cc1` (stereo not shown), the “TR-FRET Assay Max Response” value was “* (The symbol “*” indicates a value in the range of 70 to 90)” and the EC50 is more than 10 µM. Regarding `CCN(c1cccc(CNC2CCCCC2)c1)S(=O)(=O)c1cccc(C(F)(F)F)c1`, the EC50 is more than 10 µM. On to `CCN(c1cccc(CNc2ccccc2Cl)c1)S(=O)(=O)c1cccc(C(F)(F)F)c1`, for which the “TR-FRET Assay Max Response” value is recorded as “** (The symbol “**” indicates a value in the range of greater than 90 to 150)” and the EC50 was more than 10 µM. Taken in the same sequence, the figures for `CCN(c1cccc(OCc2ccccc2)c1)S(=O)(=O)c1cccc(C(F)(F)F)c1` were “*** (The symbol “***” indicates a value in the range of greater than 150 to 200)” and 0.5 to 5 µM.

As to `CCN(c1cccc(OC2Cc3ccccc3C2)c1)S(=O)(=O)c1cccc(C(F)(F)F)c1`, the “TR-FRET Assay Max Response” value was “*** (The symbol “***” indicates a value in the range of greater than 150 to 200)” and the 50% effective concentration (EC50) lay within 0.5 to 5 µM. In the case of `CCN(c1cccc(OCc2cccc(C(F)(F)F)c2Cl)c1)S(=O)(=O)c1cccc(C(F)(F)F)c1`, the half-maximal effective concentration (EC50) was more than 10 µM.

As for `CCN(Cc1cccc(N(CC)S(=O)(=O)c2cccc(C(F)(F)F)c2)c1)c1ccccc1Cl`, the “TR-FRET Assay Max Response” value is reported as “** (The symbol “**” indicates a value in the range of greater than 90 to 150)” and the EC50 was 0.5 to 5 µM. Taken in the same sequence, the figures for `CCC(c1ccc(OCc2ccccc2)cc1)S(=O)(=O)c1ccc(Cl)cc1` (stereo not shown) were “*** (The symbol “***” indicates a value in the range of greater than 150 to 200)” and 0.5 to 5 µM. Taken in the same sequence, the figures for `CCN(c1cccc(OCCc2ccccc2)c1)S(=O)(=O)c1cccc(C(F)(F)F)c1` were “** (The symbol “**” indicates a value in the range of greater than 90 to 150)” and more than 10 µM. `CCN(c1cccc(COc2ccccc2Cl)c1)S(=O)(=O)c1cccc(C(F)(F)F)c1`: the “TR-FRET Assay Max Response” value is “** (The symbol “**” indicates a value in the range of greater than 90 to 150)” and the EC50 was 0.5 to 5 µM. Taken in the same sequence, the figures for `CCC(c1cccc(OCc2c(F)cccc2Cl)c1)S(=O)(=O)c1ccc(Cl)cc1` (stereo not shown) were “*** (The symbol “***” indicates a value in the range of greater than 150 to 200)” and less than 0.5 µM. Taken in the same sequence, the figures for `CCN(c1cccc(CN2CCc3ccccc32)c1)S(=O)(=O)c1cccc(C(F)(F)F)c1` were “** (The symbol “**” indicates a value in the range of greater than 90 to 150)” and 0.5 to 5 µM. Taken in the same sequence, the figures for `CCC(c1ccc(OCc2ccccc2)cc1)S(=O)(=O)c1cccc(C(F)(F)F)c1` (stereo not shown) were “** (The symbol “**” indicates a value in the range of greater than 90 to 150)” and 0.5 to 5 µM.

`CCN(c1cccc(OCc2cc(C(F)(F)F)ccc2Cl)c1)S(=O)(=O)c1cccc(C(F)(F)F)c1`: the “TR-FRET Assay Max Response” value is on record as “*** (The symbol “***” indicates a value in the range of greater than 150 to 200)” and the EC50 is more than 10 µM. On to `CCN(Cc1ccccc1Cl)c1cccc(N(CC)S(=O)(=O)c2cccc(C(F)(F)F)c2)c1`, for which the “TR-FRET Assay Max Response” value was “** (The symbol “**” indicates a value in the range of greater than 90 to 150)” and the EC50 was more than 10 µM. Taken in the same sequence, the figures for `CCN(c1cccc(OCC2CCCCC2)c1)S(=O)(=O)c1cccc(C(F)(F)F)c1` were “**** (The symbol “****” indicates a value greater than 200)” and less than 0.5 µM. Taken in the same sequence, the figures for `CCN(c1cccc(C(C)Oc2ccccc2Cl)c1)S(=O)(=O)c1cccc(C(F)(F)F)c1` (stereo not shown) were “** (The symbol “**” indicates a value in the range of greater than 90 to 150)” and more than 10 µM.

As for `CCN(c1cccc(COC2CCCCC2C(F)(F)F)c1)S(=O)(=O)c1cccc(C(F)(F)F)c1` (stereo not shown), the “TR-FRET Assay Max Response” value is “** (The symbol “**” indicates a value in the range of greater than 90 to 150)” and the EC50 is 0.5 to 5 µM. With `CCC(c1cccc(OCc2c(F)cccc2Cl)c1)S(=O)(=O)c1cccc(C(F)(F)F)c1` (stereo not shown), the “TR-FRET Assay Max Response” value was “*** (The symbol “***” indicates a value in the range of greater than 150 to 200)” and the EC50 was less than 0.5 µM. Taken in the same sequence, the figures for `CCN(c1cccc(COC2CCCCC2)c1)S(=O)(=O)c1cccc(C(F)(F)F)c1` were “** (The symbol “**” indicates a value in the range of greater than 90 to 150)” and 0.5 to 5 µM. Taken in the same sequence, the figures for `CCN(c1cccc(COC2(C)CCCCC2)c1)S(=O)(=O)c1cccc(C(F)(F)F)c1` were “** (The symbol “**” indicates a value in the range of greater than 90 to 150)” and less than 0.5 µM. `CCN(c1cccc(Cn2c(=O)oc3ccccc32)c1)S(=O)(=O)c1cccc(C(F)(F)F)c1`: the “TR-FRET Assay Max Response” value is reported as “** (The symbol “**” indicates a value in the range of greater than 90 to 150)” and the EC50 is more than 10 µM.

With `CCN(c1cccc(CNCc2ccccc2Cl)c1)S(=O)(=O)c1cccc(C(F)(F)F)c1`, the “TR-FRET Assay Max Response” value was “** (The symbol “**” indicates a value in the range of greater than 90 to 150)” and the EC50 is more than 10 µM. Taken in the same sequence, the figures for `CCN(c1cccc(OC2CCc3ccccc32)c1)S(=O)(=O)c1cccc(C(F)(F)F)c1` (stereo not shown) were “**** (The symbol “****” indicates a value greater than 200)” and less than 0.5 µM.

On to `CCN(c1cccc(Cn2ncc3ccccc32)c1)S(=O)(=O)c1cccc(C(F)(F)F)c1`, for which the “TR-FRET Assay Max Response” value is reported as “** (The symbol “**” indicates a value in the range of greater than 90 to 150)” and the EC50 is more than 10 µM.
